Two compounds from patent US10494363B2, “Non-steroidal glucocorticoid receptor modulators for local drug delivery” (LEO PHARMA A/S, priority 2015, dated 2019) can be followed below.

A short description of series [1]: Human liver microsomes (HLM) assay. Type of series: in vitro ADME. Particulars: hepatic extraction ratio; 0.5 μM compound, 0.5 mg/mL microsomes, NADPH, 37° C. A digest of the protocol: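 Compound at 0.5 μM incubated at 37° C. with human liver microsomes (0.5 mg/mL) and NADPH (1 mM) in phosphate buffer pH 7.4, 1% organic solvent; sampled 0-30 minutes. Clapp (mL/min/kg) and Eh (%) derived from depletion rate constant.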
Background: Microsomes from liver hold many membrane-bound enzymes, among them those of drug oxidation.

The test system of series [2] is TNF alpha release from human PBMCs. The series is described as follows: Inhibition of TNF alpha release from human PBMCs. Type of series: cell-based. Particulars: PBMC, LPS 1 μg/ml, 18 hours, AlphaLISA. A digest of the protocol:
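Fresh or thawed PBMCs in serum-free medium with 0.5% HSA, stimulated with 1 μg/ml LPS plus titrated compound for 18 h at 37° C. TNF-a in supernatant by AlphaLISA; window set with a reference PDE4 inhibitor at 100×IC50. EC50 and Emax from sigmoidal fits.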
(Bead proximity is the source of the signal in Alpha formats.)

Series [3] addresses T1, glucocorticoid receptor (GR), recombinant full-length receptor protein (Homo sapiens, UniProt P04150).
T1 construct: 4 nM recombinant, full-length receptor protein was incubated with increasing concentrations of GR ligand; purchased Life Technologies A-15897
T1 sequence (P04150 1-777): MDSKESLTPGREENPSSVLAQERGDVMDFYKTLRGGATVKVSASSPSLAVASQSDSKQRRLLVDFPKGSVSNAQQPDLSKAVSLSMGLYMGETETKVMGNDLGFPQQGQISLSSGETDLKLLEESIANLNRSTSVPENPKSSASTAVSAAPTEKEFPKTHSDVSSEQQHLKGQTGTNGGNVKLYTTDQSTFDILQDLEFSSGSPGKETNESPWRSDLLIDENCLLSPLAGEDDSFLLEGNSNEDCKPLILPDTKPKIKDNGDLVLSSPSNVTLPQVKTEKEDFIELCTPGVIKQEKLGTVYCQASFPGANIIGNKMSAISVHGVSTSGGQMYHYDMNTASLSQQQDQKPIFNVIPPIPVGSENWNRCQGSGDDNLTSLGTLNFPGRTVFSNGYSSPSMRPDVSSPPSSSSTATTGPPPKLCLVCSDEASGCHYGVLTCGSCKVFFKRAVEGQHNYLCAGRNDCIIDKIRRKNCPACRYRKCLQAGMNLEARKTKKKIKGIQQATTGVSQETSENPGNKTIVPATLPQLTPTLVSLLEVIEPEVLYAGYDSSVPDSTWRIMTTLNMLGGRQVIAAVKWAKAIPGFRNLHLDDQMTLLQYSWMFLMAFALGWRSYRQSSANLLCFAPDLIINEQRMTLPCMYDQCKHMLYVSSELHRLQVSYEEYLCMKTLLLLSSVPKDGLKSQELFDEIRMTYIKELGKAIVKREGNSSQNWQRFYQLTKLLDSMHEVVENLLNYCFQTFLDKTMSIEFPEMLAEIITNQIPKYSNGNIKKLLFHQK
The series is described as follows: Glucocorticoid receptor binding assay (fluorescence polarization kit). Particulars: 4 nM receptor, 2.5 nM Fluormone GS1 tracer, 2h room temperature, read-out: GR binding ABS IC50. The method, then:
Test compounds were diluted in DMSO over seven orders of magnitude, further diluted in assay buffer and distributed into 384-well plates. The sensitivity limit of this assay was 2-4 nM.
Data were processed by sigmoidal curve fitting.
Absolute (Abs) IC50 and Emax were determined from the curve fits.
On the technique in general: Polarisation of emitted light reports the rotation of a fluorescent probe.

Usually EC50 stands for the concentration giving half of the maximal effect. A low value points to higher potency in that assay. A word on the IC50: it is the midpoint of a concentration-inhibition curve. `C[C@H](NC(=O)C(C)(F)F)[C@H](Oc1ccc(C(=O)O[C@H]2CCCN(C(=O)[C@H]3COC(=O)C3)C2)cc1)c1ccc(C2CC2)cc1` [Compound 58, [(3S)-1-[(3R)-5-oxotetrahydrofuran-3-carbonyl]-3-piperidyl] 4-[(1R,2S)-1-(4-cyclopropylphenyl)-2-(2,2-difluoropropanoylamino)propoxy]benzoate]: the “HLM assay Eh (%)” value in series [1] was “* (extraction ratio (Eh)>90%)”. The 50% effective concentration (EC50) in series [2] is < 100 nM. Besides, the half-maximal inhibitory concentration (IC50) in series [3] is < 100 nM.

Turning to `CCc1ccc([C@@H](Oc2ccc(C(=O)N[C@H]3CCCN(C(=O)[C@H]4COC(=O)C4)C3)nc2)[C@H](C)NC(=O)C(F)(F)F)cc1` [Compound 66, 5-[(1R,2S)-1-(4-ethylphenyl)-2-[(2,2,2-trifluoroacetyl)amino]propoxy]-N-[(3S)-1-[(3R)-5-oxotetrahydrofuran-3-carbonyl]-3-piperidyl]pyridine-2-carboxamide], the “HLM assay Eh (%)” value in series [1] was “* (extraction ratio (Eh)>90%)”. Besides, the EC50 in series [2] was < 100 nM. Further, the concentration for half-maximal inhibition (IC50) in series [3] was < 100 nM.
